Laboratory results taken from US4833079A, “Process for producing 3,7-dihydroxytropolone and antitumor use thereof” (Bristol-Myers Company, priority 1986, dated 1989).
≈ marks a conversion by molar mass, not a printed value. Read-outs that look alike come from different tables or passages of the source.

Legend:
B16-F10 cells = assay: in vitro cytotoxicity against B16-F10 murine melanoma cells (neutral red, 72 hours); assay type: cell-based; conditions: for IC50: Mus musculus, read-out: Cytotoxicity vs B16 IC50
Protocol: (§1) BU-3129T (3,7-dihydroxytropolone) and its analogs were tested for in vitro cytotoxicity against logarithmically growing murine melanoma tumor cells in liquid culture. B16-F10 cells (4×10^4 cells) in the enriched MEM (Minimum essential medium (Eagle's)) containing test material solution were planted into wells of 96-well microtiter plates and incubated at 37° C., with 5% CO2 under high humidity for 72 hours. After staining with neutral red, cytotoxicity of test material was determined colorimetrically. The inhibitory effects on macromolecule biosynthesis were examined in cultured L1210 leukemia cells. L1210 cells (5×10^5 cells) were exposed to radioactive precursors (^3 H-thymidine, ^14 C-uridine and ^3 H-leucine) for 60 min after the treatment with test material for 15 min. The incorporated radioactivities into acid-insoluble fractions were measured by using a liquid scintillation counter. The in vivo antitumor activity of BU-3129T was determined in male BDF1 mice against leukemia P388 and melanoma B16. Leukemia P388 and melanoma B 16 were inoculated by the intraperitoneal injection at 10^6 cells and 0.5 ml of a 10% tumor brei per mouse, respectively. Test material was administered to mice intraperitoneally once daily through 1 to 9 days after tumor implantation. Tropolone and mitomycin C were comparatively tested in the experiments.

L1210 leukemia cells = assay: inhibition of macromolecule biosynthesis in cultured L1210 leukemia cells (incorporation of radioactive precursors); assay type: cell-based; conditions: Mus musculus
Protocol: as §1

[1] = in words; Kirst paper; cited from earlier work
leukemia P388 = assay type: in vivo, mice; conditions: for MST / T/C: qd 1→9, ip
Protocol: as §1

[2] = system: mammalian malignant tumors; assay: inhibitory action against mammalian malignant tumors (summary statement); conditions: in words
Protocol: as §1

solubility = assay type: physicochemical
melanoma B16 = assay: in vivo antitumor activity against melanoma B16 in male BDF1 mice; conditions: for antitumor activity against melanoma B16: in words, mice
Protocol: as §1

[3] = L1210, DNA, 3H-thymidine, 60 min after 15 min treatment, read-out: Inhibition of macromolecule biosynthesis vs L1210 IC50, DNA
[4] = L1210, Protein, 3H-leucine, 60 min after 15 min treatment, read-out: Inhibition of macromolecule biosynthesis vs L1210 IC50, Protein
[5] = L1210, RNA, 14C-uridine, 60 min after 15 min treatment, read-out: Inhibition of macromolecule biosynthesis vs L1210 IC50, RNA
[6] = Exp. 1, 0.16 mg/kg/day, qd 1→9, ip
[7] = Exp. 1, 2.5 mg/kg/day, qd 1→9, ip
[8] = Exp. 1, 0.1 mg/kg/day, qd 1→9, ip
[9] = Exp. 1, 0.3 mg/kg/day, qd 1→9, ip
[10] = Exp. 1, 1.0 mg/kg/day, qd 1→9, ip
[11] = Exp. 2, 1.0 mg/kg/day, qd 1→9, ip
[12] = Exp. 2, 3.0 mg/kg/day, qd 1→9, ip
[13] = Exp. 2, 10 mg/kg/day, qd 1→9, ip
[14] = Exp. 2, 30 mg/kg/day, qd 1→9, ip

In the case of `O=c1c(O)ccc(O)cc1O` [4,7-dihydroxytropolone], the “potency order in the in vitro cytotoxicity test” value (from here on “potency order”) (B16-F10 cells) was “follow by 7-hydroxytropolone, 4,7-dihydroxytropolone, tropolone and 5-hydroxytropolone”, the IC50 (B16-F10 cells; B16-F10, 72 h) was 0.38 µg/mL (≈ 2.47 µM) and the IC50 (L1210 leukemia cells; [3]) was 39 µg/mL (≈ 253 µM). It also gave an IC50 (L1210 leukemia cells; [4]) greater than 100 µg/mL and an IC50 (L1210 leukemia cells; [5]) greater than 100 µg/mL.
For `O=c1ccc(O)ccc1O` [5-hydroxytropolone], the “potency order” value (B16-F10 cells) was “follow by 7-hydroxytropolone, 4,7-dihydroxytropolone, tropolone and 5-hydroxytropolone”, the IC50 (B16-F10 cells; B16-F10, 72 h) was 2.4 µg/mL (≈ 17.4 µM) and the IC50 (L1210 leukemia cells; [3]) was greater than 100 µg/mL. For the same compound, the IC50 (L1210 leukemia cells; [4]) was 100 µg/mL (≈ 724 µM) and the IC50 (L1210 leukemia cells; [5]) was greater than 100 µg/mL.
With `O=c1c(O)ccccc1O` [7-hydroxytropolone] the “potency order” value (B16-F10 cells) was “follow by 7-hydroxytropolone, 4,7-dihydroxytropolone, tropolone and 5-hydroxytropolone”, the IC50 (B16-F10 cells; B16-F10, 72 h) was 0.3 µg/mL (≈ 2.17 µM) and the IC50 (L1210 leukemia cells; [3]) was 21 µg/mL (≈ 152 µM). The IC50 (L1210 leukemia cells; [4]) was greater than 100 µg/mL and the IC50 (L1210 leukemia cells; [5]) was 41 µg/mL (≈ 297 µM).
For `O=c1c(O)cccc(O)c1O` [BU-3129T, 3,7-dihydroxytropolone], the “potency order” value (B16-F10 cells) was “most potent”, the IC50 (B16-F10 cells; B16-F10, 72 h) was 0.04 µg/mL (≈ 0.26 µM) and the “times more cytotoxic against B16 melanoma than tropolone and the hydroxytropolones compared” value (B16-F10 cells; mouse, 4320 min) was 10-40 times. For the same compound, the antimicrobial activity [1] was “possesses antimicrobial activity”, the MST (leukemia P388; 0.16 mg/kg/day) was 11.0 days and the T/C (leukemia P388; 0.16 mg/kg/day) was 105%. For the same compound, the MST (leukemia P388; 0.31 mg/kg/day) was 11.0 days, the T/C (leukemia P388; 0.31 mg/kg/day) was 105% and the MST (leukemia P388; 0.63 mg/kg/day) was 10.0 days. For the same compound, the T/C (leukemia P388; 0.63 mg/kg/day) was 95%, the MST (leukemia P388; 1.3 mg/kg/day) was 11.0 days and the T/C (leukemia P388; 1.3 mg/kg/day) was 105%. The MST (leukemia P388; 2.5 mg/kg/day) was 10.0 days, the T/C (leukemia P388; 2.5 mg/kg/day) was 95% and the “antitumor activity against leukemia P388” value (leukemia P388; in words, mice, ip) was “no activity”. The “inhibitory action against mammalian malignant tumors” value [2] was “marked inhibitory action”, the IC50 (L1210 leukemia cells; L1210, DNA, RNA and protein together, non-specific, read-out: inhibitory effects on DNA, RNA and protein biosynthesis, IC50 values) was 9 to 14 µg/mL (≈ 58.4 to 90.8 µM) and the IC50 (L1210 leukemia cells; [3]) was 9.4 µg/mL (≈ 61 µM). The IC50 (L1210 leukemia cells; [4]) was 11 µg/mL (≈ 71.4 µM), the IC50 (L1210 leukemia cells; [5]) was 14 µg/mL (≈ 90.8 µM) and the solubility (solubility; dimethylformamide) was “readily soluble”. The solubility (solubility; dimethylsulfoxide) was “readily soluble”, the solubility (solubility; ethanol) was “slightly soluble” and the solubility (solubility; methanol) was “slightly soluble”. For the same compound, the solubility (solubility; other organic solvents) was “practically insoluble”, the solubility (solubility; water) was “slightly soluble” and the MST (melanoma B16; [6]) was 16.0 days. For the same compound, the T/C (melanoma B16; [6]) was 100%, the MST (melanoma B16; Exp. 1, 0.31 mg/kg/day, qd 1→9, ip) was 18.0 days and the MST (melanoma B16; Exp. 1, 0.63 mg/kg/day, qd 1→9, ip) was 23.0 days. It also gave an MST (melanoma B16; Exp. 1, 1.3 mg/kg/day, qd 1→9, ip) of 29.0 days, an MST (melanoma B16; [7]) of 12.0 days and a T/C (melanoma B16; [7]) of 75%. For the same compound, the “toxicity” value (melanoma B16; Exp. 1, 5.0 mg/kg/day, qd 1→9, ip) was “tox”, the “antitumor activity against melanoma B16” value (melanoma B16; ip) was “significant antitumor activity” and the “Average weight change on day 5” value (melanoma B16; mouse, in vivo, ip, 0.16 mg/kg/day) was “+0.4 g”. For the same compound, the “Average weight change on day 5” value (melanoma B16; mouse, in vivo, ip, 0.31 mg/kg/day) was “+1.2 g”, the “Average weight change on day 5” value (melanoma B16; mouse, in vivo, ip, 0.63 mg/kg/day) was “+1.0 g” and the “Average weight change on day 5” value (melanoma B16; mouse, in vivo, ip, 1.3 mg/kg/day) was “+0.4 g”. For the same compound, the “Average weight change on day 5” value (melanoma B16; mouse, in vivo, ip, 2.5 mg/kg/day) was -0.8 g.
`CO[C@@]12[C@H](COC(N)=O)C3=C(C(=O)C(C)=C(N)C3=O)N1C[C@@H]1N[C@@H]12` [Mitomycin C] gave an IC50 (B16-F10 cells; B16-F10, 72 h) of 2 µg/mL (≈ 5.98 µM), an MST (leukemia P388; 0.08 mg/kg/day) of 12.0 days and a T/C (leukemia P388; 0.08 mg/kg/day) of 114%. It also gave an MST (leukemia P388; 0.16 mg/kg/day) of 15.0 days, an MST (leukemia P388; 0.31 mg/kg/day) of 16.0 days and an MST (leukemia P388; 1.3 mg/kg/day) of 21.0 days. For the same compound, the “Average weight change on day 5” value (melanoma B16; [8]) was “+1.0 g”, the MST (melanoma B16; [8]) was 16.0 days and the T/C (melanoma B16; [8]) was 100%. The “Average weight change on day 5” value (melanoma B16; [9]) was “+0.4 g”, the MST (melanoma B16; [9]) was 22.0 days and the “Average weight change on day 5” value (melanoma B16; [10]) was “+0.6 g”. The MST (melanoma B16; [10]) was 27.0 days.
With `O=c1cccccc1O` [Tropolone] the IC50 (B16-F10 cells; B16-F10 cells, 72 hours) was 1.8 µg/mL (≈ 14.7 µM), the “potency order” value (B16-F10 cells; in words) was “follow by 7-hydroxytropolone, 4,7-dihydroxytropolone, tropolone and 5-hydroxytropolone” and the IC50 (L1210 leukemia cells; L1210, read-out: Inhibition of macromolecule biosynthesis vs L1210 IC50, DNA) was 2.2 µg/mL (≈ 18 µM). For the same compound, the IC50 (L1210 leukemia cells; L1210, read-out: Inhibition of macromolecule biosynthesis vs L1210 IC50, Protein) was 9.9 µg/mL (≈ 81.1 µM), the IC50 (L1210 leukemia cells; L1210, read-out: Inhibition of macromolecule biosynthesis vs L1210 IC50, RNA) was 20 µg/mL (≈ 164 µM) and the “Average weight change on day 5” value (melanoma B16; [11]) was “+2.3 g”. For the same compound, the MST (melanoma B16; [11]) was 19.0 days, the T/C (melanoma B16; [11]) was 112% and the “Average weight change on day 5” value (melanoma B16; [12]) was “+2.5 g”. The MST (melanoma B16; [12]) was 17.5 days, the T/C (melanoma B16; [12]) was 103% and the “Average weight change on day 5” value (melanoma B16; [13]) was “+3.3 g”. The MST (melanoma B16; [13]) was 18.0 days, the T/C (melanoma B16; [13]) was 106% and the “Average weight change on day 5” value (melanoma B16; [14]) was “+2.0 g”. For the same compound, the MST (melanoma B16; [14]) was 18.0 days, the T/C (melanoma B16; [14]) was 106% and the “antitumor activity against melanoma B16” value (melanoma B16; ip) was “did not show any activity”.
